Laboratory results reported in US11318157B2, “6-6 bicyclic aromatic ring substituted nucleoside analogues for use as PRMT5 inhibitors” (Janssen Pharmaceutica NV, priority 2015, dated 2022).
Like-named read-outs stand apart in the source and are kept apart here.

Experiments:
[1] = tested on: nuclear symmetric Arginine dimethylation in A549 cells; assay: PD assay (assay 2): inhibition of nuclear symmetric Arginine dimethylation (SYM10 immunohistochemistry), 48 h; format: cell-based; conditions: Homo sapiens
How it was run: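 Cells seeded at 400/well overnight, then treated 48 h at 37 °C, final DMSO 0.2%. Fixed and stained with SYM10 antibody plus Alexa 488 secondary, Hoechst and CellMask, then imaged on Opera. Normalized to DMSO (high) and 10 μM reference compound (low); averaged pIC50 reported.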

PRMT5-MEP50 enzyme [2] = molecular target: T1, PRMT5-MEP50 enzyme (Homo sapiens, UniProt O14744); assay: In vitro assay 1a: high throughput mass spectrometer assay of SAH formation, 10 nM enzyme, 60 min; format: biochemical; conditions: averaged values, PRMT5-MEP50, 10 nM enzyme, read-out: pIC50 Assay 1a (converted)
T1 construct: One virus expresses full length human PRMT5 with Flag-tag at N-terminus; Flag (N); purchased Charles River (Argenta); host or cells: insect cells (Sf9), baculovirus co-infection
T1 sequence (O14744 whole entry): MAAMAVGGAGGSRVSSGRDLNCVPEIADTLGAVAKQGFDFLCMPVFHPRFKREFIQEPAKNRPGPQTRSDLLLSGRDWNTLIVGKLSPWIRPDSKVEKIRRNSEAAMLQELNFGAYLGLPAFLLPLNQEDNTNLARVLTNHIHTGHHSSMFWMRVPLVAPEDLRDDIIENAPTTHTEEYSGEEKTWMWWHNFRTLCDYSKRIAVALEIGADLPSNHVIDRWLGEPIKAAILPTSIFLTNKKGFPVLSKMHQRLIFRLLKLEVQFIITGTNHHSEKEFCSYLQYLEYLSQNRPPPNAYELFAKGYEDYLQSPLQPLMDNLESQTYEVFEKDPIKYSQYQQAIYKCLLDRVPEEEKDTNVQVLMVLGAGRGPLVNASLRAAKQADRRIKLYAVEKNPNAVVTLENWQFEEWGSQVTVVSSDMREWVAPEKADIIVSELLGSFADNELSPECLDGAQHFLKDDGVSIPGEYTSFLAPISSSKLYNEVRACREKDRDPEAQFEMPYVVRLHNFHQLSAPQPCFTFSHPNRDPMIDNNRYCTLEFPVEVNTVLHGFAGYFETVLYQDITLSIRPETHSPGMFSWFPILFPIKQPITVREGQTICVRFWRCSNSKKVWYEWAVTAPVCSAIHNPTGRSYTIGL
T1 sequence (Q9BQA1 whole entry partner): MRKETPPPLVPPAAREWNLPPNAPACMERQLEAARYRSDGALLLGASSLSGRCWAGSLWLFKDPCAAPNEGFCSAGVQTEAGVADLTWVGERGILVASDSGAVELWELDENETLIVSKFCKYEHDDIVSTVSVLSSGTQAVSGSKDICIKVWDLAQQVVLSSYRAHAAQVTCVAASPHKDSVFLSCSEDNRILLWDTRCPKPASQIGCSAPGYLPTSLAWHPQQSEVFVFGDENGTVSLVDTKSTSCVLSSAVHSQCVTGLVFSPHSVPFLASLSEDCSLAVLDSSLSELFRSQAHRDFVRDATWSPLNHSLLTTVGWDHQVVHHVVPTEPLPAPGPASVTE
How it was run: (§1)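 Flag-PRMT5/His-MEP50 complex from Sf9 cells, with 1 μM SAM and 0.3 μM full-length histone H2A in pH 8.5 Tris buffer, at 30 °C; 10 nM enzyme for 60 min (1a) or 1.25 nM for 120 min (1b). Formic acid-quenched SAH read by RapidFire MS/MS; 11-point IC50 with Hill fit.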

PRMT5-MEP50 enzyme [3] = molecular target: T1, PRMT5-MEP50 enzyme; assay: In vitro assay 1b: high throughput mass spectrometer assay of SAH formation, 1.25 nM enzyme, 120 min; format: biochemical; conditions: averaged values; PRMT5-MEP50, 1.25 nM enzyme, 120 min; read-out: pIC50 Assay 1b (converted)
How it was run: as §1

[4] = A549, averaged values, PD assay, A549 cells, symmetric Arginine dimethylation, read-out: pIC50 Assay 2 (converted)

| SMILES | IC50 [1, 4] | IC50 (PRMT5-MEP50 enzyme [2]) | IC50 (PRMT5-MEP50 enzyme [3]) | IC50 ([1]; A549, read-out: pIC50 Assay 2 (converted)) |
| --- | --- | --- | --- | --- |
| O[C@@H]1[C@@H](CCc2ccc3ccc(NCc4ccc(Cl)cc4)nc3c2)C[C@@H](n2ccc3cncnc32)[C@@H]1O [Compound 171] | 3.16 nM | 0.794 nM | 6.31 nM | – |
| COc1cnc2cc(OC[C@H]3O[C@@H](n4ccc5c(N)ncnc54)[C@H](O)[C@@H]3O)ccc2c1 [Compound 26] | ~251 nM | 63.1 nM | 200 nM | – |
| COC(=O)c1cnc2cc(OC[C@H]3O[C@@H](n4ccc5c(N)ncnc54)[C@H](O)[C@@H]3O)ccc2c1 [Compound 105] | 2510 nM | 158 nM | 1000 nM | – |
| Nc1ncnc2c1ccn2[C@@H]1O[C@H](COc2ccc3c(C(F)(F)F)ccnc3c2)[C@@H](O)[C@H]1O [Compound 99] | > 10000 nM | > 10000 nM | > 100000 nM | – |
| Cc1ccc2ccc(OC[C@H]3O[C@@H](n4ccc5c(N)ncnc54)[C@H](O)[C@@H]3O)cc2n1 [Compound 21] | 5010 nM | 1260 nM | 1580 nM | – |
| Nc1ncnn2c([C@@H]3O[C@H](/C=C/c4ccc5cccnc5c4)[C@@H](O)[C@H]3O)ccc12 [Compound 61] | ~1320 nM | 398 nM | 1000 nM | – |
| Cc1cnc2cc(OC[C@H]3O[C@@H](n4ccc5c(N)ncnc54)[C@H](O)[C@@H]3O)ccc2c1 [Compound 217] | 39.8 nM | 5.01 nM | 20 nM | – |
| Nc1ncnc2c1ccn2[C@@H]1O[C@H](COc2ccc3cncnc3c2)[C@@H](O)[C@H]1O [Compound 16] | 5010 nM | 251 nM | 1260 nM | – |
| Nc1ncnc2c1ccn2[C@@H]1O[C@H](COc2ccc3cc(C4CC4)cnc3c2)[C@@H](O)[C@H]1O [Compound 84] | 200 nM | 15.8 nM | 79.4 nM | – |
| Nc1ncnc2c1ccn2[C@@H]1C[C@H](CCc2ccc3ccc(NCC(F)(F)F)nc3c2)[C@@H](O)[C@H]1O [Compound 151] | 5.01 nM | 0.794 nM | 15.8 nM | – |
| Nc1ncnc2c1ccn2[C@@H]1O[C@H](COc2cnc3ccccc3c2)[C@@H](O)[C@H]1O [Compound 10] | ~7080 nM | 3160 nM | 3980 nM | – |
| CCc1cnc2cc(CC[C@H]3C[C@@H](n4ccc5c(N)ncnc54)[C@H](O)[C@@H]3O)ccc2c1 [Compound 125] | 20 nM | 3.98 nM | 25.1 nM | – |
| COc1ncnc2c1ccn2[C@@H]1O[C@H](COc2ccc3ccc(N)nc3c2)[C@@H](O)[C@H]1O [Compound 187] | 25.1 nM | 10 nM | 79.4 nM | – |
| Nc1ncnc2c1ccn2[C@@H]1O[C@H](COc2ccc3cccnc3c2I)[C@@H](O)[C@H]1O [Compound 40] | ~12000 nM | 2510 nM | 1580 nM | – |
| Cc1ncnc2c1ccn2[C@@H]1O[C@H](CCc2ccc3ccc(N)nc3c2)[C@@H](O)[C@H]1O [Compound 192] | 3.16 nM | 0.631 nM | 10 nM | – |
| Nc1ncnc2c1ccn2[C@@H]1O[C@H](COc2cc3ncc(Br)cc3cc2C(F)(F)F)[C@@H](O)[C@H]1O [Compound 96] | 200 nM | 200 nM | 501 nM | – |
| Nc1ccc2ccc(OC[C@H]3O[C@@H](n4ccc5cncnc54)[C@H](O)[C@@H]3O)cc2n1 [Compound 163] | 6.31 nM | 0.501 nM | 5.01 nM | – |
| O[C@@H]1[C@@H](CCc2ccc3ccc(NCc4ccc(Cl)cc4)nc3c2)C[C@@H](n2ccc3c(Cl)ncnc32)[C@@H]1O [Compound 114] | 12.6 nM | 15.8 nM | 25.1 nM | – |
| Nc1ncnc2c1ccn2[C@@H]1O[C@H](COc2cccc3ncccc23)[C@@H](O)[C@H]1O [Compound 5] | > 10000 nM | 2000 nM | 5010 nM | – |
| CNc1ncnc2c1ccn2[C@@H]1O[C@H](COc2ccc3ccc(N)nc3c2)[C@@H](O)[C@H]1O [Compound 186] | 79.4 nM | 2 nM | 15.8 nM | – |
| COc1cc2c(N)c(C#N)cnc2cc1OC[C@H]1O[C@@H](n2ccc3c(N)ncnc32)[C@H](O)[C@@H]1O [Compound 31] | > 20000 nM | 3160 nM | 3980 nM | – |
| COc1ccc2ccc(OC[C@H]3O[C@@H](n4ccc5c(N)ncnc54)[C@H](O)[C@@H]3O)cc2n1 [Compound 19] | > 20000 nM | 1580 nM | 3160 nM | – |
| COCc1ccc2ccc(OC[C@H]3O[C@@H](n4ccc5c(N)ncnc54)[C@H](O)[C@@H]3O)cc2n1 [Compound 175] | > 10000 nM | > 10000 nM | 3160 nM | – |

| SMILES | IC50 [1, 4] | IC50 (PRMT5-MEP50 enzyme [2]) | IC50 (PRMT5-MEP50 enzyme [3]) | IC50 ([1]; A549, read-out: pIC50 Assay 2 (converted)) |
| --- | --- | --- | --- | --- |
| Nc1ncnc2c1ccn2[C@@H]1O[C@H](COc2ccc3c(Cl)ccnc3c2)[C@@H](O)[C@H]1O [Compound 33] | 501 nM | 158 nM | 794 nM | – |
| CNc1ccc2ccc(CC[C@H]3C[C@@H](n4ccc5cncnc54)[C@H](O)[C@@H]3O)cc2n1 [Compound 164] | < 1.17 nM | 0.398 nM | 10 nM | – |
| Nc1ncnc2c1ccn2[C@@H]1O[C@H](COc2ccc3cccnc3c2Cl)[C@@H](O)[C@H]1O [Compound 41] | > 10000 nM | 6310 nM | 10000 nM | – |
| COc1cc2c(Cl)c(C#N)cnc2cc1OC[C@H]1O[C@@H](n2ccc3c(N)ncnc32)[C@H](O)[C@@H]1O [Compound 30] | > 10000 nM | > 10000 nM | 39800 nM | – |
| CC(C)Nc1ccc2ccc(CC[C@H]3C[C@@H](n4ccc5c(N)ncnc54)[C@H](O)[C@@H]3O)cc2n1 [Compound 149] | – | 0.316 nM | 5.01 nM | 1 nM |
| Nc1ncnc2c1ccn2[C@@H]1C[C@H](CCc2ccc3cc(Cl)cnc3c2)[C@@H](O)[C@H]1O [Compound 58] | 39.8 nM | 12.6 nM | 20 nM | – |
| Nc1ncnc2c1ccn2[C@@H]1C[C@H](CCc2ccc3cnc(NCC4CC4)nc3c2)[C@@H](O)[C@H]1O [Compound 141] | 63.1 nM | 7.94 nM | 50.1 nM | – |
| Nc1ncnc2c1ccn2[C@@H]1O[C@H](COc2ccc3cnccc3c2)[C@@H](O)[C@H]1O [Compound 12] | > 10000 nM | 1580 nM | 3980 nM | – |
| CNc1ccc2ccc(CC[C@H]3C[C@@H](n4ccc5c(C)ncnc54)[C@H](O)[C@@H]3O)cc2n1 [Compound 176] | 3.16 nM | 0.501 nM | 3.98 nM | – |
| O[C@@H]1[C@H](O)[C@@H](CCc2ccc3ccc(NCC4CC4)nc3c2)O[C@H]1n1ccc2c(Cl)ncnc21 [Compound 138] | 126 nM | 7.94 nM | 79.4 nM | – |
| Nc1ncnc2c1ccn2[C@@H]1O[C@H](COc2ccc3cc(F)cnc3c2)[C@@H](O)[C@H]1O [Compound 24] | 794 nM | 39.8 nM | 126 nM | – |
| Nc1ncnc2c1ccn2[C@@H]1O[C@H](COc2ccc3cccnc3n2)[C@@H](O)[C@H]1O [Compound 17] | 7940 nM | 1000 nM | 1580 nM | – |
| CN(C)Cc1ccc2ccc(OC[C@H]3O[C@@H](n4ccc5c(N)ncnc54)[C@H](O)[C@@H]3O)cc2n1 [Compound 97] | > 10000 nM | > 10000 nM | 15800 nM | – |
| N#Cc1cnc2cc(OC[C@H]3O[C@@H](n4ccc5c(N)ncnc54)[C@H](O)[C@@H]3O)ccc2c1Cl [Compound 28] | > 20000 nM | > 10000 nM | 7940 nM | – |
| Nc1ncnc2c1ccn2[C@@H]1O[C@H](CCc2ccc3ccc(NCC4CC4)nc3c2)[C@@H](O)[C@H]1O [Compound 139] | 6.31 nM | 1.26 nM | 10 nM | – |
| Nc1ncnn2c([C@@H]3O[C@H](COc4ccc5cccnc5c4)[C@@H](O)[C@H]3O)ccc12 [Compound 60] | 1260 nM | 251 nM | 398 nM | – |
| Nc1ccc2ccc(OC[C@H]3O[C@@H](n4ccc5c(O)ncnc54)[C@H](O)[C@@H]3O)cc2n1 [Compound 208] | > 10000 nM | 2510 nM | 1260 nM | – |
| CCc1cnc2cc(CC[C@H]3O[C@@H](n4ccc5c(N)ncnc54)[C@H](O)[C@@H]3O)ccc2c1 [Compound 122] | 79.4 nM | 12.6 nM | 50.1 nM | – |
| Nc1ncnc2c1ccn2[C@@H]1C[C@H](CCc2ccc3ccc(NC4CCCC4)nc3c2)[C@@H](O)[C@H]1O [Compound 146] | < 1.17 nM | 0.251 nM | 2.51 nM | – |
| Nc1ncnc2c1ccn2[C@@H]1C[C@H](COc2ccc3cc(Br)cnc3c2)[C@@H](O)[C@H]1O [Compound 47] | 50.1 nM | 25.1 nM | 63.1 nM | – |
| Cc1ncnc2c1ccn2[C@@H]1C[C@H](CCc2ccc3ccc(NCC4CC4)nc3c2)[C@@H](O)[C@H]1O [Compound 190] | ~1.86 nM | 0.501 nM | 5.01 nM | – |
| COc1ncnc2c1ccn2[C@@H]1O[C@H](CNc2ccc3cc(Br)cnc3c2)[C@@H](O)[C@H]1O [Compound 87] | 1580 nM | 501 nM | 1000 nM | – |
| Nc1ncnc2c1ccn2[C@@H]1O[C@H](COc2cc3ncc(Cl)cc3cc2Cl)[C@@H](O)[C@H]1O [Compound 100] | 794 nM | 126 nM | 200 nM | – |
